Here are results for 28 compounds from patent US10052306B2 (LUC THERAPEUTICS, INC., priority 2013, dated 2018).

Test [1] deals with NR1/NR2B (Homo sapiens (Human), UniProt Q13224). Briefly: Cell assay: FDSS Ca2+ influx inhibition in HEK293 cells expressing NR1/NR2B.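 Also: Fluo-8 Ca2+ signal read on Hamamatsu FDSS 6000 after glutamate, glycine and Ca2+ challenge following 10 min compound preincubation, end/baseline fluorescence ratio compared with MK801 control.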 The settings on record: read-out: NR2B NAM IC50; HEK293 cells expressing NR1/NR2B, Ca2+ influx.
Test [2] deals with NR1/NR2B (Homo sapiens (Human), UniProt Q05586+Q13224). Described as above. To be noted: Binned Activity, HEK293 cells expressing NR1/NR2B, Ca2+ influx; binned NR2B NAM IC50.

pIC50: −log10 of the molar value.

NR1/NR2B (Homo sapiens (Human), UniProt Q05586+Q13224), sequence (Q13224 27-1484, other chains not shown): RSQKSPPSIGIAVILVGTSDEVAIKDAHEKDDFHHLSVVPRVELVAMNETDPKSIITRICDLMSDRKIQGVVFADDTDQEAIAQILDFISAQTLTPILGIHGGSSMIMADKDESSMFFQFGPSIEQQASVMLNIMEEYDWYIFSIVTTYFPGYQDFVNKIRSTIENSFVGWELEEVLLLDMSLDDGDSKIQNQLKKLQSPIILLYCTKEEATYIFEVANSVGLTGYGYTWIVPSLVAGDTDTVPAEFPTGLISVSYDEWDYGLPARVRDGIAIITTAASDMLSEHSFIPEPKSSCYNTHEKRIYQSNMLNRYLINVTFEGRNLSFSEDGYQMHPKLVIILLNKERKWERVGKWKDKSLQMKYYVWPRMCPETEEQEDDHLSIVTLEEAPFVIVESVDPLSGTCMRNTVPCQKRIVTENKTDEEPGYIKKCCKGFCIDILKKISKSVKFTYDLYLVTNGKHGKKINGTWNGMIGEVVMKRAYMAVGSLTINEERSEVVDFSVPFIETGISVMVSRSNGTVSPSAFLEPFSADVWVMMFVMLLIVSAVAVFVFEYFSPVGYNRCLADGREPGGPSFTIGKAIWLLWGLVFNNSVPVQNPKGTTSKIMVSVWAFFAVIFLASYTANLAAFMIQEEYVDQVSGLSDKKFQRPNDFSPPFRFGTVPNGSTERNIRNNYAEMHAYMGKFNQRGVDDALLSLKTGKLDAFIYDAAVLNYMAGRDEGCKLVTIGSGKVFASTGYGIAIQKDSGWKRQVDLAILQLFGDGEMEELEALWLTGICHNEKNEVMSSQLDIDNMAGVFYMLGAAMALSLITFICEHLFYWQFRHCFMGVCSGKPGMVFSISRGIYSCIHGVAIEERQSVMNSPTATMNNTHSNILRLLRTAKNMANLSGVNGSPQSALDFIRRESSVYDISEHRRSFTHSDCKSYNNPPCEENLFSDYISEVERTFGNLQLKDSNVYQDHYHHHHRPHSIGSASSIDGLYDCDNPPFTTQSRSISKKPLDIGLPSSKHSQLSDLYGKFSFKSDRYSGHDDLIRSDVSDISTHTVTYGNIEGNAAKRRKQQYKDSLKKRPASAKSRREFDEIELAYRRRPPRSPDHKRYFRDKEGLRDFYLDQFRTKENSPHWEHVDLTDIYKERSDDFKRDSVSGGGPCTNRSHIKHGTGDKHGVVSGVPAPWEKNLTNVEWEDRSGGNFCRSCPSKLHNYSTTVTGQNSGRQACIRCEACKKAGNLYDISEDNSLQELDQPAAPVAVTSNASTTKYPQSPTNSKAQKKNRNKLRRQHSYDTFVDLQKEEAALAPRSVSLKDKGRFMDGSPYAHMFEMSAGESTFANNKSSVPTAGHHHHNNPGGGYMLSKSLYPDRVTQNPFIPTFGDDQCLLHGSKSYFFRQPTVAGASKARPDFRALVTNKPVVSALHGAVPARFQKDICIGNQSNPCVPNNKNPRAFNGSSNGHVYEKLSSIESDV
NR1/NR2B (Homo sapiens (Human), UniProt Q13224), sequence (Q13224 27-1484, other chains not shown): as above

As usually defined, the pIC50 is the negative decadic logarithm of the IC50, by convention in mol/L. Take `Cc1cccc(-c2cccc(C(=O)CN3C[C@@H]4C[C@@](O)(Cc5ccccc5)C[C@@H]4C3)c2)c1` [Example 276, 2-((3aR,5r,6aS)-5-benzyl-5-hydroxyhexahydrocyclo-penta[c]pyrrol-2(1H)-yl)-1-(3′-methyl-[1,1′-biphenyl]-3yl)ethanone]: the negative logarithm of the IC50 (pIC50) at NR1/NR2B [1] was 5.00; against NR1/NR2B [2], < 5.00.

With `COc1ccc(NC(=O)N2C[C@@H]3C[C@@](O)(Cc4ccccc4)C[C@@H]3C2)cc1` [Example 126, (3aR,5r,6aS)-5-benzyl-5-hydroxy-N-(4-methoxy-phenyl)hexahydro-cyclopenta[c]pyrrole-2(1H)-carboxamide], the pIC50 was 5.00 on NR1/NR2B [1] and < 5.00 at NR1/NR2B [2].

With `O=C(CN1C[C@@H]2C[C@@](O)(Cc3ccc(C(F)(F)F)cc3)C[C@@H]2C1)c1ccc(O)cn1` [Example 216, 2-[(3aR,5R,6aS)-5-hydroxy-5-{[4-(trifluoromethyl)phenyl]methyl}-octahydrocyclopenta[c]pyrrol-2-yl]-1-(5-hydroxypyridin-2-yl)ethan-1-one], the negative logarithm of the IC50 (pIC50) on NR1/NR2B [1] is 6.10; on NR1/NR2B [2] it was 6.00 to 7.00.

Consider `COc1ccccc1NC(=O)N1C[C@@H]2C[C@@](O)(Cc3ccccc3)C[C@@H]2C1` [Example 128, (3aR,5r,6aS)-5-benzyl-5-hydroxy-N-(2-meth-oxyphenyl)hexahydro-cyclopenta[c]pyrrole-2(1H)-carboxamide], for which the pIC50 was 5.00 on NR1/NR2B [1] and < 5.00 at NR1/NR2B [2].

For `CC(C)(C)OC(=O)Nc1ccc(C(=O)CN2C[C@@H]3C[C@@](O)(Cc4ccccc4)C[C@@H]3C2)cn1` [Example 284, tert-butyl (5-(2-(5-benzyl-5-hydroxyhexahydrocyclo-penta[c]pyrrol-2(1H)-yl)acetyl)pyridin-2-yl)carbamate], the negative-log IC50 (pIC50) was 5.00 on NR1/NR2B [1] and < 5.00 at NR1/NR2B [2].

In the case of `O=C(Nc1ccccc1)N1C[C@@H]2C[C@@](O)(c3ccccc3)C[C@@H]2C1` [Example 25, 5-hydroxy-N,5-diphenyl-octahydrocyclopenta[c] pyrrole-2-carboxamide], the pIC50 was 5.00 at NR1/NR2B [1] and < 5.00 against NR1/NR2B [2].

With `COc1cccc(NC(=O)N2C[C@H]3C[C@@H](c4ccccc4)C[C@H]3C2)c1` [Example 104, N-(3-methoxyphenyl)-5-phenyl-octahydrocyclopenta[c] pyrrole-2-carboxamide], the negative logarithm of the IC50 (pIC50) at NR1/NR2B [1] is 5.00; at NR1/NR2B [2], < 5.00.

In the case of `Cc1ccc(NC(=O)N2C[C@@H]3C[C@@](O)(Cc4ccccc4)C[C@@H]3C2)cc1` [Example 125, (3aR,5r,6aS)-5-benzyl-5-hydroxy-N-(p-tolyl) hexahydrocyclopenta [c]pyrrole-2(1H)-carboxamide], the pIC50 is 5.00 on NR1/NR2B [1] and < 5.00 against NR1/NR2B [2].

`Oc1ccc([C@H](O)CN2C[C@@H]3C[C@@](O)(Cc4ccccc4)C[C@@H]3C2)nc1` [Example 165, (3aR,5R,6aS)-5-benzyl-2-((R)-2-hydroxy-2-(5-hydroxypyridin-2-yl)ethyl)octahydrocyclo-penta[c]pyrrol-5-ol]: the figures for the negative-log IC50 (pIC50) at NR1/NR2B [1] and against NR1/NR2B [2] were 7.47 and > 7.00, respectively.

For `O=C(Nc1cccc(C(F)(F)F)c1)N1C[C@@H]2C[C@@](O)(c3ccccc3)C[C@@H]2C1` [Example 5, 5-hydroxy-5-phenyl-N-[3-(trifluoromethyl)phenyl]-octahydrocyclopenta[c] pyrrole-2-carboxamide], the negative logarithm of the IC50 (pIC50) at NR1/NR2B [1] was 5.00; against NR1/NR2B [2], < 5.00.

For the compound `O=C(Nc1cccnc1)N1C[C@@H]2C[C@@](O)(c3ccccc3)C[C@@H]2C1` [Example 44], the values for the negative-log IC50 (pIC50) on NR1/NR2B [1] and on NR1/NR2B [2] were 5.00 and < 5.00, respectively.

In the case of `O=C1CCc2cc(C(=O)CN3C[C@@H]4C[C@@](O)(Cc5ccccc5)C[C@@H]4C3)ccc2N1` [Example 148, 6-(2-((3aR,5r,6aS)-5-benzyl-5-hydroxyhexahydrocyclo-penta[c]pyrrol-2(1H)-yl)acetyl)-3,4-dihydroquinolin-2(1H)-one], the negative-log IC50 (pIC50) is 6.86 at NR1/NR2B [1] and 6.00 to 7.00 at NR1/NR2B [2].

Consider `O=C(CN1C[C@@H]2C[C@@](O)(Cc3ccccn3)C[C@@H]2C1)c1ccc(O)cc1` [Example 231, 2-((3aR,5r,6aS)-5-hydroxy-5-(pyridin-2-ylmethyl)hexahydro-cyclopenta[c]pyrrol-2(1H)-yl)-1-(4-hydroxyphenyl)ethanone], for which the pIC50 at NR1/NR2B [1] was 6.02; against NR1/NR2B [2], 6.00 to 7.00.

Turning to `O=C(CN1C[C@@H]2C[C@](F)(Cc3ccccc3)C[C@@H]2C1)c1ccc(O)cc1` [Example 310, 2-((3aR,5s,6aS)-5-benzyl-5-fluorohexahydrocyclo-penta[c]pyrrol-2(1H)-yl)-1-(4-hydroxyphenyl)ethanone], the pIC50 on NR1/NR2B [1] was 6.76; against NR1/NR2B [2], 6.00 to 7.00.

Take `O=C(Nc1ccc(Cl)c(C(F)(F)F)c1)N1C[C@@H]2C[C@@](O)(Cc3ccccc3)C[C@@H]2C1` [Example 120, (3aR,5r,6aS)-5-benzyl-N-(4-chloro-3-(trifluoromethyl)phenyl)-5-hydroxyhexahydrocyclo-penta[c]pyrrole-2(1H)-carboxamide]: the pIC50 at NR1/NR2B [1] is 5.00; against NR1/NR2B [2], < 5.00.

Take `O=C(CN1C[C@@H]2C[C@@](O)(Cc3ccccc3)C[C@@H]2C1)c1ccc(O)nc1` [Example 178, 2-[(3aR,5R,6aS)-5-benzyl-5-hydroxy-octahydrocyclopenta[c]pyrrol-2-yl]-1-(6-hydroxypyridin-3-yl)ethan-1-one]: the pIC50 on NR1/NR2B [1] was 5.00; on NR1/NR2B [2] it was < 5.00.

Consider `O=C(CN1C[C@@H]2C[C@@](O)(Cc3ccccc3Cl)C[C@@H]2C1)c1ccc(O)cn1` [Example 234, 2-((3aR,5r,6aS)-5-(2-chlorobenzyl)-5-hydroxyhexahydrocyclo-penta[c]pyrrol-2(1H)-yl)-1(5-hydroxypyridin-2-yl)ethanone], for which the negative-log IC50 (pIC50) at NR1/NR2B [1] is 5.70; against NR1/NR2B [2], 5.00 to 6.00.

Turning to `COc1ccc(C(=O)CN2C[C@@H]3C[C@@](O)(Cc4ccccc4)C[C@@H]3C2)cn1` [Example 161, 2-((3aR,5r,6aS)-5-benzyl-5-hydroxyhexahydrocyclo-penta[c]pyrrol-2(1H)-yl)-1-(6-methoxypyridin-3-yl)ethanone], the figures for the negative-log IC50 (pIC50) on NR1/NR2B [1] and against NR1/NR2B [2] were 5.00 and < 5.00, respectively.

On to `COc1ccc(C[C@]2(O)C[C@H]3CN(CC(=O)c4ccc(O)cn4)C[C@H]3C2)cc1` [Example 192, 2-[(3aR,5R,6aS)-5-hydroxy-5-[(4-methoxyphenyl)methyl]-octahydrocyclopenta[c]pyrrol-2-yl]-1-(5-hydroxypyridin-2-yl)ethan-1-one], for which the negative logarithm of the IC50 (pIC50) at NR1/NR2B [1] is 5.12; against NR1/NR2B [2] it was 5.00 to 6.00.

In the case of `Cc1cccc(NC(=O)N2C[C@@H]3C[C@@](O)(Cc4ccccc4)C[C@@H]3C2)c1` [Example 129, (3aR,5r,6aS)-5-benzyl-5-hydroxy-N-(m-tolyl)hexahydrocyclo-penta[c]pyrrole-2(1H)-carboxamide], the negative logarithm of the IC50 (pIC50) at NR1/NR2B [1] is 5.00; at NR1/NR2B [2], < 5.00.

As for `O=C(CN1C[C@H]2C[C@@H](c3ccccc3)C[C@H]2C1)c1ccc(O)cc1` [Example 114, 1-(4-hydroxyphenyl)-2-(5-phenylhexahydrocyclo-penta[c]pyrrol-2(1H)-yl)ethanone], the values for the negative-log IC50 (pIC50) at NR1/NR2B [1] and at NR1/NR2B [2] were 6.63 and 6.00 to 7.00, respectively.

Turning to `O=C(CN1C[C@@H]2CN(Cc3ccccc3)C[C@@H]2C1)c1ccc(O)cn1` [Example 328, 2-(5-benzylhexahydropyrrolo [3,4-c]pyrrol-2(1H)-yl)-1-(5-hydroxypyridin-2-yl)ethanone], the negative logarithm of the IC50 (pIC50) on NR1/NR2B [1] was 5.00; on NR1/NR2B [2], < 5.00.

`O=C(CN1C[C@@H]2C[C@@](O)(Cc3ccc(C(F)(F)F)cc3)C[C@@H]2C1)c1ccc(O)cc1` [Example 219, 2-[(3aR,5R,6aS)-5-hydroxy-5-{[4-(trifluoromethyl)phenyl]methyl}-octahydrocyclopenta[c]pyrrol-2-yl]-1-(4-hydroxyphenyl)ethan-1-one]: the results for the pIC50 on NR1/NR2B [1] and on NR1/NR2B [2] were 6.90 and 6.00 to 7.00, respectively.

On to `O=C(CN1C[C@@H]2C[C@@](O)(CC3CC3)C[C@@H]2C1)c1ccc(O)cc1` [Example 210, 2-((3aR,5r,6aS)-5-(cyclopropylmethyl)-5-hydroxyhexahydrocyclo-penta[c]pyrrol-2(1H)-yl)-1-(4-hydroxyphenyl)ethanone], for which the pIC50 at NR1/NR2B [1] was 5.00; at NR1/NR2B [2] it was < 5.00.

Consider `O=C(CN1C[C@H]2C[C@@H](Cc3ccccc3)C[C@H]2C1)c1ccc(O)c(F)c1` [Example 307, 2-[(3aR,5S,6aS)-5-benzyl-octahydrocyclopenta[c]pyrrol-2-yl]-1-(3-fluoro-4-hydroxyphenyl) ethan-1-one], for which the results for the pIC50 on NR1/NR2B [1] and at NR1/NR2B [2] were 7.39 and > 7.00, respectively.

Regarding `COc1ccc(C[C@]2(O)C[C@H]3CN(CC(=O)c4ccc(O)cc4)C[C@H]3C2)cc1` [Example 184, 2-[(3aR,5R,6aS)-5-hydroxy-5-[(4-methoxyphenyl)methyl]-octahydrocyclopenta[c]pyrrol-2-yl]-1-(4-hydroxyphenyl)ethan-1-one], the values for the pIC50 on NR1/NR2B [1] and at NR1/NR2B [2] were 7.36 and > 7.00, respectively.

Take `Cc1cccc(N2C[C@@H]3C[C@@](O)(c4ccccc4)C[C@@H]3C2)n1` [Example 85, 2-(6-methylpyridin-2-yl)-5-phenyl-octahydrocyclopenta[c] pyrrol-5-ol]: the negative logarithm of the IC50 (pIC50) at NR1/NR2B [1] was 5.00; on NR1/NR2B [2], < 5.00.

`Cc1cccc(N2C[C@@H]3C[C@@](O)(c4ccccc4C)C[C@@H]3C2)n1` [Example 86, 5-(2-methylphenyl)-2-(6-methylpyridin-2-yl)-octahydrocyclopenta[c] pyrrol-5-ol]: the values for the pIC50 at NR1/NR2B [1] and on NR1/NR2B [2] were 5.00 and < 5.00, respectively.
